{"source": "paper PMC10338423", "about": "“Synthesis and preclinical evaluation of a novel fluorine-18 labeled small-molecule PET radiotracer for imaging of CXCR3 receptor in mouse models of atherosclerosis” (EJNMMI Research, 2023)", "key": {"CXCR3": {"target": "T1, CXCR3 (Mus musculus, UniProt O88410)", "T1 construct": "tissue Jackson Laboratory (mice); host or cells: In vivo: atherosclerotic abdominal aorta and brown adipose tissue of ApoE KO mice (high-fat diet) and C57BL/6 control mice (normal diet)", "T1 sequence (O88410 1-367)": "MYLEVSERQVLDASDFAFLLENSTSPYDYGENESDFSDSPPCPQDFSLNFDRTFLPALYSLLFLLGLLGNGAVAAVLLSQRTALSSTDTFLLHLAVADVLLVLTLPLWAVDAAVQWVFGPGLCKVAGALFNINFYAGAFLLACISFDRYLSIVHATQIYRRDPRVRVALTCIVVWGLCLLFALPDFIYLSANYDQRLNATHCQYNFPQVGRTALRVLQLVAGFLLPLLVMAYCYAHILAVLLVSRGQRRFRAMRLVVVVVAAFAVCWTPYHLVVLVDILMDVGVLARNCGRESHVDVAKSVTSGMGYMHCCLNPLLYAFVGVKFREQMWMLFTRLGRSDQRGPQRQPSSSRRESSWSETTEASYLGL", "test": "PET/CT imaging, baseline and self-blocking, in ApoE KO mice on high-fat diet", "format": "in vivo", "description": "[^18F]1 was further evaluated for reliability as a CXCR3 radiotracer using mouse models of atherosclerosis. For this purpose, we tested [^18F]1 in ApoE KO mice, a widely used murine model of atherosclerosis. Six-week-old ApoE KO male mice (N = 6) and C57BL/6 male control mice (i.e., a background strain of ApoE KO mouse, ApoE-wildtype control; N = 6) were purchased from Jackson Laboratory (Bar Harbor, ME). The ApoE KO mice were placed on a high-fat diet over 12 weeks to accelerate atherosclerosis development. […] At 12 weeks, PET/computed tomography (CT) studies were performed using both mice groups. Dynamic PET scans (90 min acquisition) were performed beginning 5 min after the intravenous injection of [^18F]1 followed by a ~ 10 min CT scan. Usually, one week after the baseline PET/CT scan, the corresponding blocking PET/CT scan was performed. This time, 1·HCl salt (5 mg/kg) was used as a blocking agent and intravenously injected 5 min before the radiotracer injection.\nAll animal studies were performed at the VA Biomolecular Imaging Center (VA BIC) at the Harry S. Truman Memorial Veterans’ Hospital (Columbia, MO). Six-week-old ApoE KO male mice and C57BL/6 control male mice were purchased from Jackson Laboratory. All mice were housed in the controlled vivarium during the studies. All ApoE KO mice were fed with high-fat chow that contained 42% fat, 34% of that contained unsaturated fat (TD.88137, Envigo, Indianapolis, IN), one week after the arrival and continued the feeding until the end of the study. The first PET/CT scans were performed 12 weeks after initiating the high-fat diet, and the second PET/CT scans that used 1·HCl as a blocking agent were performed at least one week after the first PET/CT scans. Meanwhile, C57BL/6 control mice were fed with normal chow over the same schedule to match with ApoE KO mice.\nMaximum intensity micro-PET images were obtained on a Siemens INVEON small-animal PET/CT scanner (Siemens Medical Solutions USA, Inc., Malvern, PA). […] The micro-PET data was analyzed using Siemens Inveon Research Workplace, General Analysis software. […]"}, "[1]": {"test": "Stability of formulated radiotracer (HPLC)", "format": "physicochemical", "details": "formulated in 10% EtOH/0.9% saline containing 0.5% sodium ascorbate", "description": "The addition of AcOH and the high temperature was necessary for an improved RCC. A usual C18 SPE workup followed by semi-preparative reverse phase HPLC purification afforded [^18F]1 in RCY of 13 ± 2% (n = 10) at the end of synthesis (EOS). The semi-preparative HPLC chromatograms of [^18F]1 is shown in Additional file 1: Fig. S1(a). The HPLC purification was performed using a Phenomenex Gemini C18 Semi-preparative column (5 µm, 250 × 10 mm) equipped with UV (254 nm) and radioactivity detectors by eluting with an isocratic mobile phase composed of 65% MeCN, 5% MeOH, 30% water, and 0.1% triethylamine (NEt3) at a flow rate of 5 mL/min. The radioactive [^18F]1 was collected between 16 and 17 min and was well-separated from the rest of the UV and radioactivity peaks. After the purification, the collected product was formulated in 10% EtOH/0.9% saline containing 0.5% sodium ascorbate. The total radiosynthesis time was 100 min at the EOS. The final reformulated aliquot was further characterized by HPLC analysis using a Phenomenex Gemini C18 analytical column (5 µm, 250 × 4.6 mm) equipped with UV and radioactivity detectors by eluting with the same HPLC solvent at a flow rate of 1 mL/min. The radioactive peak was eluted between 15 and 17 min. […]"}, "[2]": {"details": "1·HCl 5 mg/kg i.v. 5 min before tracer"}}}
{"smiles": "CC[C@H]1CN(c2ncc(-c3nnco3)cc2Cl)CCN1C1CCN(Cc2ccc(Cl)cc2[18F])CC1", "note": "[[^18F]1]", "values": [{"measurement": "blocking effect in BAT (from AUC of TACs)", "setting": "CXCR3; [2]", "value": 23.4, "unit": "%"}, {"measurement": "blocking effect in atherosclerotic abdominal aorta (from AUC of TACs)", "setting": "CXCR3; [2]", "value": 16.9, "unit": "%"}, {"measurement": "standard uptake value (SUV), BAT region", "setting": "CXCR3; blocking study with 1·HCl 5 mg/kg i.v., stated for both groups", "value": "1.2–1.5"}, {"measurement": "time radiotracer is stable", "setting": "[1]", "value": "more than 10 h"}]}
